The structures appear in SMILES notation.

Common to all, as to conditions: 10 μM free compound
Experiment [1] has as its target HPK1 (Homo sapiens, UniProt Q92918). Put plainly: Kinobeads competition binding, HL60 cell lysate. Further details: endogenous in cells; host or cells: HL60. On the procedure:
(§1) To one aliquot of cell lysate 10 μM of the free compound (FIG. 3, CZC31326) was added and allowed to bind to proteins in the lysate. Then the affinity matrix with the immobilized compound (Example 1) was added to capture proteins that were not interacting with the previously added free compound. Beads were separated from the lysate and bead bound proteins were eluted in SDS sample buffer and subsequently separated by SDS-Polyacrylamide gel electrophoresis (FIG. 4). Suitable gel bands were cut out and subjected to in-gel proteolytic digestion with trypsin. The second lysate aliquot was processed identically, however no free compound was added (DMSO solvent control). Peptides originating from samples 1 and 2 were labeled with iTRAQ reagents (iTRAQ 114 and iTRAQ 117) and the combined samples were analyzed with a nano-flow liquid chromatography system coupled online to a tandem mass spectrometer (LC-MS/MS) experiment followed by iTRAQ reporter ion quantification in the MS/MS spectra (Ross et al., 2004. Mol. Cell. Proteomics 3(12):1154-1169). Further experimental protocols can be found in WO2006/134056 and a previous publication (Bantscheff et al., 2007. Nature Biotechnology 25, 1035-1044). Sepharose-beads with the immobilized compound (100 μl beads per pull-down experiment) were equilibrated in lysis buffer and incubated with a cell lysate sample containing 50 mg of protein on an end-over-end shaker (Roto Shake Genie, Scientific Industries Inc.) for 2 hours at 4° C. Beads were collected, transferred to Mobicol-columns (MoBiTech 10055) and washed with 10 ml lysis buffer containing 0.4% NP40 detergent, followed by 5 ml lysis buffer containing 0.2% detergent. To elute bound proteins, 60 μl 2×SDS sample buffer was added to the column. The column was incubated for 30 minutes at 50° C. and the eluate was transferred to a siliconized microfuge tube by centrifugation. Proteins were then alkylated with 108 mM iodoacetamid. Proteins were then separated by SDS-Polyacrylamide electrophoresis (SDS-PAGE). The peptide extracts of samples treated with 10 μM of free compound (CZC31326) and the solvent control (0.5% DMSO) were treated with different variants of the isobaric tagging reagent (iTRAQ Reagents Multiplex Kit, part number 4352135, Applied Biosystems, Foster City, Calif., USA). The iTRAQ reagents are a set of multiplexed, amine-specific, stable isotope reagents that can label peptides on amino groups in up to four different biological samples enabling simultaneous identification and quantitation of peptides. The iTRAQ reagents were used according to instructions provided by the manufacturer. The samples were resuspended in 10 μl 50 mM TEAB solution, pH 8.5 and 10 μl ethanol were added. The iTRAQ reagent was dissolved in 120 μl ethanol and 10 μl of reagent solution were added to the sample. The labeling reaction was performed at room temperature for one hour on a horizontal shaker and stopped by adding 5 μl of 100 mM TEAB and 100 mM glycine in water. The two labeled sampled were then combined, dried in a vacuum centrifuge and resuspended in 10 μl of 0.1% formic acid in water. Relative protein quantitation was performed using peak areas of iTRAQ reporter ion signals essentially as described in an earlier publication (Bantscheff et al., 2007. Nature Biotechnology 25, 1035-1044).

Experiment [2] has as its target MYT1 (Homo sapiens, UniProt Q99640). Briefly: Kinobeads competition binding, HL60 cell lysate. On the set-up: endogenous in cells; host or cells: HL60. On the procedure:
as §1

The target in experiment [3] is T1, PKG1 (Homo sapiens, UniProt Q13976).
T1 construct: capturing and identification of kinases from mixed HeLa placenta lysates; endogenous in cells; host or cells: mixed lysate of HeLa cells and placenta tissue
Put plainly: Kinobeads competition binding, HeLa Placenta lysate mix. On the procedure:
(§2) To one aliquot of cell lysate 10 μM of the free compound (FIG. 3, CZC31326) was added and allowed to bind to proteins in the lysate. Then the affinity matrix with the immobilized compound was added to capture proteins that were not interacting with the previously added free compound. Beads were separated from the lysate and bead bound proteins were eluted in SDS sample buffer and subsequently separated by SDS-Polyacrylamide gel electrophoresis (FIG. 10). Suitable gel bands were cut out and subjected to in-gel proteolytic digestion with trypsin. The second lysate aliquot was processed identically, however no free compound was added (DMSO solvent control). Peptides originating from samples 1 and 2 were labeled with iTRAQ reagents (iTRAQ 114 and iTRAQ 117) and the combined samples were analyzed with a nano-flow liquid chromatography system coupled online to a tandem mass spectrometer (LC-MS/MS) experiment followed by iTRAQ reporter ion quantification in the MS/MS spectra as described in Example 2.

Experiment [4] has as its target T2, TIE2 (Homo sapiens, UniProt Q02763).
T2 construct: capturing and identification of kinases from mixed HeLa placenta lysates; endogenous in cells; host or cells: mixed lysate of HeLa cells and placenta tissue
The experiment is described as above. As to the method:
as §2

The target of experiment [5] is T3, MAP3K6 (Homo sapiens, UniProt O95382).
T3 construct: capturing and identification of kinases from mixed HeLa placenta lysates; endogenous in cells; host or cells: mixed lysate of HeLa cells and placenta tissue
The description is as above. As to the method:
as §2

Experiment [6] has as its target T4, KDR (Homo sapiens, UniProt P35968).
T4 construct: capturing and identification of kinases from mixed HeLa placenta lysates; endogenous in cells; host or cells: mixed lysate of HeLa cells and placenta tissue
Described as above. On the procedure:
as §2

Experiment [7] addresses T5, MRCKb (Homo sapiens, UniProt Q9Y5S2).
T5 construct: capturing and identification of kinases from mixed HeLa placenta lysates; endogenous in cells; host or cells: mixed lysate of HeLa cells and placenta tissue
The experiment is described as above. On the procedure:
as §2

For experiment [8], the target named is T6, AMPKa2 (Homo sapiens, UniProt P54646).
T6 construct: capturing and identification of kinases from mixed HeLa placenta lysates; endogenous in cells; host or cells: mixed lysate of HeLa cells and placenta tissue
Described as above. On the procedure: as §2

The target of experiment [9] is T7, FLT4 (Homo sapiens, UniProt P35916).
T7 construct: capturing and identification of kinases from mixed HeLa placenta lysates; endogenous in cells; host or cells: mixed lysate of HeLa cells and placenta tissue
The description is as above. As to the method: as §2

The target of experiment [10] is T8, FAK (Homo sapiens, UniProt Q05397).
T8 construct: capturing and identification of kinases from mixed HeLa placenta lysates; endogenous in cells; host or cells: mixed lysate of HeLa cells and placenta tissue
Described as above. On the procedure:
as §2

Experiment [11] concerns the target T9, SRC (Homo sapiens, UniProt P12931).
T9 construct: capturing and identification of kinases from mixed HeLa placenta lysates; endogenous in cells; host or cells: mixed lysate of HeLa cells and placenta tissue
The description is as above. As to the method:
as §2

Experiment [12] has as its target T10, CaMKK1 (Homo sapiens, UniProt Q8N5S9).
T10 construct: capturing and identification of kinases from mixed HeLa placenta lysates; endogenous in cells; host or cells: mixed lysate of HeLa cells and placenta tissue
The description is as above. As to the method: as §2

For experiment [13], the target named is T11, MAP3K7 (Homo sapiens, UniProt O43318).
T11 construct: capturing and identification of kinases from mixed HeLa placenta lysates; endogenous in cells; host or cells: mixed lysate of HeLa cells and placenta tissue
The description is as above. On the procedure: as §2

In experiment [14] the target is T12, MRCKa (Homo sapiens, UniProt Q5VT25).
T12 construct: capturing and identification of kinases from mixed HeLa placenta lysates; endogenous in cells; host or cells: mixed lysate of HeLa cells and placenta tissue
The description is as above. On the procedure: as §2

For experiment [15], the target named is T13, TNK1 (Homo sapiens, UniProt Q13470).
T13 construct: capturing and identification of kinases from mixed HeLa placenta lysates; endogenous in cells; host or cells: mixed lysate of HeLa cells and placenta tissue
The description is as above. As to the method:
as §2

T1 sequence (Q13976 whole entry): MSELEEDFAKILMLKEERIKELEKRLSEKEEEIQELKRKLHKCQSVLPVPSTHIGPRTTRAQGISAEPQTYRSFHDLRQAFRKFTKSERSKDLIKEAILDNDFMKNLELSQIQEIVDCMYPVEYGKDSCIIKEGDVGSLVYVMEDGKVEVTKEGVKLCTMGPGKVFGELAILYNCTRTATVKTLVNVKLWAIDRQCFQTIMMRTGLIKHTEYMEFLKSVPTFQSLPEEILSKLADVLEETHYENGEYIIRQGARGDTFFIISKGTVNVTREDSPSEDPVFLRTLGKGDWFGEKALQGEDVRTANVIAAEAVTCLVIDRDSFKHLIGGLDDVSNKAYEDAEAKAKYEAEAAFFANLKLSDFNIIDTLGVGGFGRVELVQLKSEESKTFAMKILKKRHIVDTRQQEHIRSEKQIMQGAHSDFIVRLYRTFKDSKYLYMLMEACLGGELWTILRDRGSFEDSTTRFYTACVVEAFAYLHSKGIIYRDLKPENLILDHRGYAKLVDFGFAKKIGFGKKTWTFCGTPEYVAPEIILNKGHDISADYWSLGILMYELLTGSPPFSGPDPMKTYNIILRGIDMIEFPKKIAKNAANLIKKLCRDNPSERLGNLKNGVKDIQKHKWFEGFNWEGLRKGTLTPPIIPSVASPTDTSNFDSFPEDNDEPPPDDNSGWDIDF
T11 sequence (O43318 whole entry): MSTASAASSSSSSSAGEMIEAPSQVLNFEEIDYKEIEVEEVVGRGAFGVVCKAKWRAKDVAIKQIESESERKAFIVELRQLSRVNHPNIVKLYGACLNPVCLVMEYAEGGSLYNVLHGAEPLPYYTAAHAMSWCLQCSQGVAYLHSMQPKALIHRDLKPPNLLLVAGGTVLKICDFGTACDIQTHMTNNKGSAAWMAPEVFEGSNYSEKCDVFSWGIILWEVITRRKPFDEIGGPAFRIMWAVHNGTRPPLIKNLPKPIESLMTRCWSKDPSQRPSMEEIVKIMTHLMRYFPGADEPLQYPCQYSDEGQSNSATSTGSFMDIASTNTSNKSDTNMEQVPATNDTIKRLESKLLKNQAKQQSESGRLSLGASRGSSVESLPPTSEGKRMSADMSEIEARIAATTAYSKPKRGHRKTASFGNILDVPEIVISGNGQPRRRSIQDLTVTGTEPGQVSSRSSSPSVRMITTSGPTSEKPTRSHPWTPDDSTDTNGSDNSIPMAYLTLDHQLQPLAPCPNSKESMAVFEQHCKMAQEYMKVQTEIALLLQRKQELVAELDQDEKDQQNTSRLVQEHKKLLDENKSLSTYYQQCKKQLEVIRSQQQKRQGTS
HPK1, sequence (Q92918 whole entry): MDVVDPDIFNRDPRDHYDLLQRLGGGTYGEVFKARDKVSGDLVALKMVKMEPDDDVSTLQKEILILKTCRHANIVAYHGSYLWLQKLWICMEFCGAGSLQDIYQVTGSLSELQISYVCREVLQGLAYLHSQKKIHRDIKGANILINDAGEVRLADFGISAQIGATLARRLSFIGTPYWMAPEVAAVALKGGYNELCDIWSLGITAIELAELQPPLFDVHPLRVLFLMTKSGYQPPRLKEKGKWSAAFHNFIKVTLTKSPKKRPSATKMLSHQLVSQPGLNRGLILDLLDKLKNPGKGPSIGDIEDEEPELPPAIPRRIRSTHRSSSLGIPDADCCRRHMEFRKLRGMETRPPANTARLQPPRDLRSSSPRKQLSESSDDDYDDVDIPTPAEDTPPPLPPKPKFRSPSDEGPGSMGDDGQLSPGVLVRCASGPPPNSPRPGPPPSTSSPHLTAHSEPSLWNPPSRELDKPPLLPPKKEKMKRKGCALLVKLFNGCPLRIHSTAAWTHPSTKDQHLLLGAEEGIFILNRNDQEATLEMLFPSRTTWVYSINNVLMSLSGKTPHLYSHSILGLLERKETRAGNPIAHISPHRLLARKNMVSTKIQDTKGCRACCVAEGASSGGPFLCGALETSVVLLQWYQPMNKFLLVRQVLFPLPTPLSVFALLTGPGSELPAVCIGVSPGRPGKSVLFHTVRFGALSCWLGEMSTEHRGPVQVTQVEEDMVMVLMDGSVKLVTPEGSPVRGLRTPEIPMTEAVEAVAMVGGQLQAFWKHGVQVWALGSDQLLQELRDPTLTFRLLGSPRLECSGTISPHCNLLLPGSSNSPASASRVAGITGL
T5 sequence (Q9Y5S2 whole entry): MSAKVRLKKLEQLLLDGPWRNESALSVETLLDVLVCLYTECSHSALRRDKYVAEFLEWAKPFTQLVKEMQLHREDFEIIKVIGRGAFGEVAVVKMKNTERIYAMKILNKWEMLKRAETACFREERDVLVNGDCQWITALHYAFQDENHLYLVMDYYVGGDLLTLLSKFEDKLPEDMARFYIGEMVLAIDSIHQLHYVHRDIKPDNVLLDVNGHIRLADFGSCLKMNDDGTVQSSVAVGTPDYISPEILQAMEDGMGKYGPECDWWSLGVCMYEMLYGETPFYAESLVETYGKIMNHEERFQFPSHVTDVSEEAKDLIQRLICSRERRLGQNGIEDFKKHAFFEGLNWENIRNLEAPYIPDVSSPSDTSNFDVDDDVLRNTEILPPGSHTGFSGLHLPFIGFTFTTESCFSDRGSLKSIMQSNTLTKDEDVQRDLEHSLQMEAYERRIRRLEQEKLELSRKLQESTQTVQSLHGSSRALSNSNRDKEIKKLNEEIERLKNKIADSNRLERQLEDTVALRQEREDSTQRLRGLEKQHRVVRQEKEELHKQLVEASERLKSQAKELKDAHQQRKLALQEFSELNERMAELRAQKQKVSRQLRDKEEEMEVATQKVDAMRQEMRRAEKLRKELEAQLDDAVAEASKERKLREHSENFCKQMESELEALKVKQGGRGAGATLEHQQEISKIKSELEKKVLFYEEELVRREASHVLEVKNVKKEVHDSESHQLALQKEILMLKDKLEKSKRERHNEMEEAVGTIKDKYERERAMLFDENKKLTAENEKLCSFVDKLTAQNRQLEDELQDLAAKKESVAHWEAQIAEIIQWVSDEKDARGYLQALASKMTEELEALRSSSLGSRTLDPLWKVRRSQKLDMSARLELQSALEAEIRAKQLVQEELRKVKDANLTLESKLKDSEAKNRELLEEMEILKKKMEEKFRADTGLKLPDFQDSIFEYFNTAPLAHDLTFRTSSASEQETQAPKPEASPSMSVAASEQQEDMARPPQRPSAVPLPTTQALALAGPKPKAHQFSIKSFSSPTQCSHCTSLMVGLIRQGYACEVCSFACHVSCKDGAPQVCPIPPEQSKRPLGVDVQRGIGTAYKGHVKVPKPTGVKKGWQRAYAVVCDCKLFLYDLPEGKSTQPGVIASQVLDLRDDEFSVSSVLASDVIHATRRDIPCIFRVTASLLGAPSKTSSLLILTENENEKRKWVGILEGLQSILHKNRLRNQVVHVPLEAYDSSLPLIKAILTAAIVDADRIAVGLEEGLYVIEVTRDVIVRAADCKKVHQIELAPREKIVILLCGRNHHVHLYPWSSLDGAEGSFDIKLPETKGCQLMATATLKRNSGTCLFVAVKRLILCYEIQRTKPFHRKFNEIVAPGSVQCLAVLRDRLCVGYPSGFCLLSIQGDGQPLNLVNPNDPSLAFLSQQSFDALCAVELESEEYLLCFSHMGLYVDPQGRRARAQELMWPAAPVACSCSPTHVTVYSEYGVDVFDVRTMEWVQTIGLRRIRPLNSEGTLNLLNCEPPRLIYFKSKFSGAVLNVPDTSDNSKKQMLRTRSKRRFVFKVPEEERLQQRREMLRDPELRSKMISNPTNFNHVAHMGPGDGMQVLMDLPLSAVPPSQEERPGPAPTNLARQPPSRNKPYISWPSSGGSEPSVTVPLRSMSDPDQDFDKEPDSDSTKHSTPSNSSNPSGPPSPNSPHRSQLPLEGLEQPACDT
T8 sequence (Q05397 whole entry): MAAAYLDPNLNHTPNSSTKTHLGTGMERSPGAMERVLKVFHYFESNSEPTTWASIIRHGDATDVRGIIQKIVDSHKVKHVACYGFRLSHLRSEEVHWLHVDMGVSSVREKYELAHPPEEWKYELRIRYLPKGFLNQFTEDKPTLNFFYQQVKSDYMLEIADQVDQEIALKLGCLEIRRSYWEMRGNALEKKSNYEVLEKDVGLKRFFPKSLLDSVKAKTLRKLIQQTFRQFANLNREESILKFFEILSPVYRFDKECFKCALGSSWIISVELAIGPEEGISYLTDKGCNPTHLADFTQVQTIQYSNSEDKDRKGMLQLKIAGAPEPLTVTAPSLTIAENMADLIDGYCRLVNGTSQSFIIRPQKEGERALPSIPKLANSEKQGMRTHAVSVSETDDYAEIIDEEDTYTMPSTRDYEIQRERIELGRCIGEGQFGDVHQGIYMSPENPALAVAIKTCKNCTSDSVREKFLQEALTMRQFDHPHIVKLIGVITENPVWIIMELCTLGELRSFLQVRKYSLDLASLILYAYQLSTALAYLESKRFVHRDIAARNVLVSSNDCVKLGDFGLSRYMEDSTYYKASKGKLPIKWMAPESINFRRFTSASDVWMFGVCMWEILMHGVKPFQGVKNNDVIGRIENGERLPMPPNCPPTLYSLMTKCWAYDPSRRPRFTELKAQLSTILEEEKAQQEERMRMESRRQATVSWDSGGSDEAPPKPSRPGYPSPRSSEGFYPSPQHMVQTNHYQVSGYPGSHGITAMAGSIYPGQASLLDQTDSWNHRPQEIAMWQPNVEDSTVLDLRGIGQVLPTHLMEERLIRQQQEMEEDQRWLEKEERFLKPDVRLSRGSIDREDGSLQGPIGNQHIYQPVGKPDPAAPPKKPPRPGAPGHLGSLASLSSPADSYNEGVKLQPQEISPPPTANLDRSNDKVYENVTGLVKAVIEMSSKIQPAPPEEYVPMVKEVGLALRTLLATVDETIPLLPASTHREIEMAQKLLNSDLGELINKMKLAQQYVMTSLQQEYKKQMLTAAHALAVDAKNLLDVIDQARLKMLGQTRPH

For the compound `CS(=O)(=O)Nc1ccccc1Nc1nc(Nc2cccc(OCCN)c2)ncc1Cl` [CZC31326, N-(2-(2-(3-(2-aminoethoxy)phenylamino)-5-chloropyrimidin-4-ylamino)phenyl)methanesulfonamide], the inhibition – broadly, the change of the read-out against control, counted positive when it falls – at 10 µM was 97.7% in experiment [1]; 90.4% in [3]; 91.6% in experiment [4]; 84.3% in experiment [5]; 90% in experiment [6]; 94% in experiment [7]. Also, the inhibition at 10 µM in [8] was found to be 95.2%; in experiment [9], 89.3%; in experiment [10], 93.8%; in experiment [11] it was 92.2%; in [12], 94.2%; in [13], 82.1%. For the same compound, the inhibition at 10 µM worked out at 92.1% in [14] and 94.3% in experiment [15]. Also, the Competition % in experiment [2] is 90.5%.

Values taken from US20120270237A9, “METHODS FOR THE IDENTIFICATION OF KINASE INTERACTING MOLECULES AND FOR THE PURIFICATION OF KINASE PROTEINS” (Cellzone AG, priority 2009, published 2012).
